Experiments:
HT29 tumors [1] = assay: Rb-Pser795 S phase marker staining of HT29 tumors; assay type: in vivo, mice; conditions: 100 mg/kg gemcitabine i.p., 1 to 72 hr
Text: To confirm that low H3-P staining corresponds to S phase arrest, tumors were also stained with an S phase marker, phosphorylated Rb-Pser795. Tumor slices taken in the experiment above were stained with the Rb-Pser795 antibody (Cell Signaling Cat# 9301S) and the number of positive staining cells quantified.

137-62 tumors = assay: H3-P staining in 137-62 tumors after gemcitabine; assay type: in vivo, rat
Experimental: (§1) Chem. 271:13197-201. 1996; Goto et al., J Biol Chem. 274:25543-9, 1999). The assay protocol was as follows. Tumors from rodents treated or untreated with Chk1 activator (in the present study, chemotherapy agent) and/or Chk1 inhibitor, were excised and paraffin embedded. The tumors are cut into 6 micron thick slices and mounted on glass slides. […] The slides are then heated to 95° C. in 10 mM sodium citrate for 10 minutes followed by a 20 minute cooling step. The slides are blocked for 30 minutes with Block buffer (20% normal human serum and 2% bovine serum albumin in phosphate buffered saline containing 0.05% Triton X-100 (PBST)). The anti-phospho histone H3 antibody (Upstate Biotech, Cat. #06-570) is diluted 1:200 in the Block buffer and incubated with the slides for one hour. The slides are washed 3 times 5 minutes in PBST. The secondary antibody, donkey anti-rabbit rhodamine (Jackson, cat #711-295-152) was added for 30 minutes. The slides were then washed twice in PBST and […] of […] DAPI (Sigma) in PBS is added and allowed to stain for 30 minutes. The slides were then washed two more times in PBST and mounted with Vectashield (Vector, cat # H-1400). Slides were viewed using fluorescence microscopy. The percentage of cells stained with H3-P antibody relative to total (DAPI stained) cells were quantified using Metamorph software (Universal Imaging Corporation, Version 4.6). […]

H460 tumors = assay: H3-P staining in H460 tumors after gemcitabine; assay type: in vivo, rodent
Experimental: as §1

tumor cells = assay: Cell-based proliferation (sensitization) assay (Example 2); conditions: ratio of GI90 of the chemotherapy agent in absence to that in presence of Chk1 inhibitor
Experimental: Chk1 inhibitors were tested in a cell-based proliferation assay for the ability to sensitize tumor cells to ionizing radiation or chemotherapy agents. Chk1 inhibitors were tested in combination with 5-FU, gemicitabine, ionizing radiation, camptothecin, etoposide, hydroxyurea, cisplatin, fludarabine, Ara-C and aphidicolin. For each experiment, a serial dilution of each compound in combination with a ten-point dilution of each chemotherapy agent was included, in order to determine the concentration of chemotherapeutic required to inhibit the growth of 90% (GI90) of the cells in the presence and absence of the Chk1 inhibitor. This ratio of GI90 in the absence of Chk1 inhibitor to that in the presence of Chk1 inhibitor is called the “fold sensitization.” Fold sensitization was plotted as a function of Chk1 inhibitor concentration and the amount of drug required to yield two-fold sensitization was calculated. […] Another parameter analyzed was the fold sensitization achieved at the LD50 (the dose of compound alone that inhibits growth of 50% of cells) for the compound. These two values allow direct ranking of both the potency and toxicity of Chk1 inhibitors with respect to one another.

HT29 tumors [2] = assay: H3-P mitotic index assay in HT29 tumors; assay type: in vivo, mice; conditions: for mitotic index (H3-P): 100 mg/kg gemcitabine i.p.
Experimental: Chem. 271:13197-201. 1996; Goto et al., J Biol Chem. 274:25543-9, 1999). The assay protocol was as follows. Tumors from rodents treated or untreated with Chk1 activator (in the present study, chemotherapy agent) and/or Chk1 inhibitor, were excised and paraffin embedded. The tumors are cut into 6 micron thick slices and mounted on glass slides. […] The slides are then heated to 95° C. in 10 mM sodium citrate for 10 minutes followed by a 20 minute cooling step. The slides are blocked for 30 minutes with Block buffer (20% normal human serum and 2% bovine serum albumin in phosphate buffered saline containing 0.05% Triton X-100 (PBST)). The anti-phospho histone H3 antibody (Upstate Biotech, Cat. #06-570) is diluted 1:200 in the Block buffer and incubated with the slides for one hour. The slides are washed 3 times 5 minutes in PBST. The secondary antibody, donkey anti-rabbit rhodamine (Jackson, cat #711-295-152) was added for 30 minutes. The slides were then washed twice in PBST and […] of […] DAPI (Sigma) in PBS is added and allowed to stain for 30 minutes. The slides were then washed two more times in PBST and mounted with Vectashield (Vector, cat # H-1400). Slides were viewed using fluorescence microscopy. The percentage of cells stained with H3-P antibody relative to total (DAPI stained) cells were quantified using Metamorph software (Universal Imaging Corporation, Version 4.6). […] Tumors from these animals were resected, paraffin embedded and stained with an antibody to H3-P followed by a counter-stained with DAPI. The percentage of mitotic cells (positive to H3-P) was quantified at each time point. […] To determine whether checkpoint abrogation by selective Chk1 inhibitor was dose-dependent, HT29 tumor-bearing mice were pretreated with gemcitabine and 32 hours later dosed with increasing doses of selective Chk1 inhibitor. After 18 hours, tumors were harvested and stained for H3-P as described above. […] The response is saturated at 400 mg/kg.

## Nc1ccn([C@@H]2O[C@H](CO)[C@@H](O)C2(F)F)c(=O)n1 [gemcitabine]
HT29 tumors [1]
  Rb-P staining cells: more Rb-P staining cells at, 24, 48 and 72 hours than at earlier timepoints
137-62 tumors; 137-62 cells, after gemcitabine
  time at which cells exited S phase arrest: 24 h
137-62 tumors; 137-62 tumors treated with gemcitabine
  time of lowest H3-P staining: 12 h
H460 tumors; H460 cells, after gemcitabine
  time at which cells exited S phase arrest: 48 h
H460 tumors; H460 tumors treated with gemcitabine
  time of lowest H3-P staining: 12 h
Tumor cells
  Fold Sensitization to Agent by Chk1 Inhibitor: 12 fold
HT29 tumors [2]; 100 mg/kg gemcitabine for 48 hours alone
  mitotic cells (H3-P positive): approximately 4%
HT29 tumors [2]; 1-6 hr time points
  mitotic index (H3-P): approximately 3
HT29 tumors [2]; between 12 and 24 hr after administration
  mitotic index (H3-P): approximately 1.5
HT29 tumors [2]; HT29, treated with gemcitabine
  time of lowest H3-P staining: 48 h
HT29 tumors [2]; HT29 tumors, from H3-P and Rb-Pser795 staining
  time of optimal S phase arrest post-gemcitabine treatment: 24 to 48 h

— patent US20070185013A1, “Use of chk1 inhibitors to control cell proliferation” (ICOS CORPORATION, priority 2003, published 2007)
